Non-standard residues stand in square brackets, D forms with d. Residues, ends and D or L forms follow the SMILES beside them.
Experiments:
[1] = Plasma protein binding, TRANSIL XL AGP binding kit; format: in vitro ADME, human; details: TRANSIL XL AGP beads 0.04-3 μM, 5 μM peptide (3H-labelled + non-labelled), LSC read-out, nonlinear regression
Method: (§1) Plasma protein binding (PPB) to human serum albumin (HSA) and α1-acid glycoprotein (AGP) of ANK6, tANK6, and cANK6r was analyzed according to the manufacturer’s protocol of TRANSIL^XL HSA and AGP binding kits (Sovicell GmbH, Germany). To cover a larger range of HSA and AGP concentrations, the bead concentrations in the kit were modified. For detection, a mixture of ^3H-labelled and non-labelled ANK6, tANK6, and cANK6r (final concentrations of 5μM) was added to different concentrations of HSA (7.4μM to 420μM, 10–12 different concentrations) or AGP beads (0.04μM to 3μM, 9–12 different concentrations). The amount of unbound ANK6, tANK6, and cANK6r (in %) to HSA or AGP, respectively, was determined by liquid scintillation counter (LSC) measurements. The dissociation constants (KD) as well as the free drug fractions (fu) in human plasma were calculated as described before. Calculations were based on peptide concentrations detected in the blood 4 h after single oral administration of 10 mg/kg: 0.01μM ANK6, 0.01μM tANK6, and 0.01μM cANK6r.

tg-APPSwDI mice = details: intraperitoneal treatment, 4 weeks; Klein et al.; cited from earlier work
[2] = biological target: human serum albumin (HSA) (Homo sapiens, UniProt P02768); experiment: Plasma protein binding, TRANSIL XL HSA binding kit; format: in vitro ADME; details: TRANSIL XL HSA beads 7.4-420 μM, 5 μM peptide (3H-labelled + non-labelled), LSC read-out, nonlinear regression
human serum albumin (HSA), sequence (P02768 25-609): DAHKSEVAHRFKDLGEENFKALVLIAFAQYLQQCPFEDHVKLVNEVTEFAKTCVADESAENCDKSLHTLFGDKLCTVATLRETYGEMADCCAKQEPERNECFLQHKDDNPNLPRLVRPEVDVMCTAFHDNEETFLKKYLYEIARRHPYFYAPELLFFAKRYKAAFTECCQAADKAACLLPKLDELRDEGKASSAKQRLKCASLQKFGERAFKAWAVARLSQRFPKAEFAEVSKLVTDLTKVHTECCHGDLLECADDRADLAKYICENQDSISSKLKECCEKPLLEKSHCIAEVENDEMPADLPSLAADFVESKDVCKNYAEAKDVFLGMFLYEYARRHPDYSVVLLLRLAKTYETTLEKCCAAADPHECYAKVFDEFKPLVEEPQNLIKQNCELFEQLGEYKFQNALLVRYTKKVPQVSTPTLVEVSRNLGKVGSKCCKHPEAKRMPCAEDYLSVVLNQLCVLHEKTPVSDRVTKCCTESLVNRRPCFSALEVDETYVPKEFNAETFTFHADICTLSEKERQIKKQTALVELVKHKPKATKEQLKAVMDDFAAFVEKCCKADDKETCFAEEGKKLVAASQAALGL
Method: as §1

CC[C@@H](C)[C@@H](NC(=O)[C@@H](CCCNC(=N)N)NC(=O)[C@@H](CCCCN)NC(=O)[C@H](N)CCCNC(=N)N)C(=O)N[C@H](CCCNC(=N)N)C(=O)N[C@H](CC(C)C)C(=O)N[C@@H](C(=O)N[C@@H](C(=O)N[C@H](CCCCN)C(=O)N[C@H](CCCCN)C(=O)N[C@H](CCCCN)C(=O)N[C@H](CCCNC(=N)N)C(N)=O)[C@H](C)O)C(C)C [ANK6] (H-[dR][dK][dR][dI][dR][dL][dV][dT][dK][dK][dK][dR]-NH2; N-terminus assumed)
Kd [1]: 290 nM | memory performance of tg-APPSwDI mice (tg-APPSwDI mice): a non-significant tendency for improving memory performance | KD to HSA [2]: not analyzable

CC[C@@H](C)[C@H]1NC(=O)[C@@H](CCCNC(=N)N)NC(=O)[C@@H](CCCCN)NC(=O)[C@@H](CCCNC(=N)N)NC(=O)[C@@H](CCCNC(=N)N)NC(=O)[C@@H](CCCNC(=N)N)NC(=O)[C@@H](CCCCN)NC(=O)[C@@H](CCCCN)NC(=O)[C@@H](CCCCN)NC(=O)[C@@H]([C@H](C)O)NC(=O)[C@@H](C(C)C)NC(=O)[C@@H](CC(C)C)NC(=O)[C@@H](CCCNC(=N)N)NC1=O [cANK6r] (cyclo([dR][dK][dR][dI][dR][dL][dV][dT][dK][dK][dK][dR][dR]))
Kd [1]: 280 nM

CC[C@@H](C)[C@@H](NC(=O)[C@@H](CCCNC(=N)N)NC(=O)[C@@H](CCCCN)NC(=O)[C@H](N)CCCNC(=N)N)C(=O)N[C@H](CCCNC(=N)N)C(=O)N[C@H](CC(C)C)C(=O)N[C@@H](C(=O)N[C@@H](C(=O)N[C@H](CCCCN)C(=O)N[C@H](CCCCN)C(=O)N[C@H](CCCCN)C(=O)N[C@H](CCCNC(=N)N)C(=O)N[C@H](CCCNC(=N)N)C(=O)N[C@H](CCCCN)C(=O)N[C@H](CCCNC(=N)N)C(=O)N[C@@H](C(=O)N[C@H](CCCNC(=N)N)C(=O)N[C@H](CC(C)C)C(=O)N[C@@H](C(=O)N[C@@H](C(=O)N[C@H](CCCCN)C(=O)N[C@H](CCCCN)C(=O)N[C@H](CCCCN)C(=O)N[C@H](CCCNC(=N)N)C(N)=O)[C@H](C)O)C(C)C)[C@H](C)CC)[C@H](C)O)C(C)C [tANK6] (H-[dR][dK][dR][dI][dR][dL][dV][dT][dK][dK][dK][dR][dR][dK][dR][dI][dR][dL][dV][dT][dK][dK][dK][dR]-NH2; N-terminus assumed)
Kd [1]: 60 nM
